{"source": "patent US9187524B2", "about": "“Broad spectrum antibiotic arylomycin analogs” (The Scripps Research Institute, priority 2010, dated 2015)", "key": {"[1]": {"system": "S. epidermidis PAS9002 (SPase S31P)", "test": "microbe, parasite or virus in culture", "format": "cell-based"}, "S. epidermidis": {"system": "S. epidermidis", "test": "Selection of arylomycin resistant S. epidermidis", "format": "cell-based", "settings": "growth in the presence of 2 μg/ml (8×MIC)"}}, "data": [{"smiles": "CCCCCCCCCCCCCCCC(=O)N(C)[C@H](CO)C(=O)N[C@H](C)C(=O)NCC(=O)N(C)[C@@H]1C(=O)N[C@@H](C)C(=O)N[C@H](C(=O)O)Cc2ccc(O)c(c2)-c2cc1ccc2O", "note": "[Arylomycin C16]", "values": [{"measurement": "MIC", "setting": "[1]; Staphylococcus epidermidis, read-out: MIC, S. epidermidis PAS9002", "result": "> 128", "unit": "µg/mL"}, {"measurement": "fold elevated MIC compared to the wild type strain, Ser to Pro at position 31", "setting": "[1]; remainder of selected S. epidermidis mutants", "result": "greater than 256 fold"}, {"measurement": "frequency of resistant mutants", "setting": "S. epidermidis", "result": 4, "unit": "per 109 viable cells"}]}]}
